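Each compound was tested at five concentrations against cells in 96-well plates for 48 hours. Here, GI50 denotes the concentration required for 50% inhibition of growth.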 Activity calls are given as the source filed them. Rule as the data show it: active = GI50 up to about 1.1 µM and inactive = higher.
How the values were obtained:
Assay in all cases: NCI tumour cell line growth inhibition, 48 h
EKVX = system: EKVX
HCT-15 = system: HCT-15
HL-60 = system: HL-60
HOP-62 = system: HOP-62
MCF7 = system: MCF7
MDA-MB-231 = system: MDA-MB-231
MOLT-4 = system: MOLT-4
NCI-H460 = system: NCI-H460
OVCAR-8 = system: OVCAR-8
PC-3 = system: PC-3
RXF 393 = system: RXF 393
SF-268 = system: SF-268
SF-295 = system: SF-295
SF-539 = system: SF-539
SK-MEL-28 = system: SK-MEL-28
SK-MEL-5 = system: SK-MEL-5
SNB-19 = system: SNB-19
SNB-75 = system: SNB-75
TK-10 = system: TK-10
BT-549 = system: BT-549

SMILES | GI50 (EKVX) | GI50 (HCT-15) [µM] | GI50 (HL-60) | GI50 (HOP-62) | GI50 (MCF7) | GI50 (MDA-MB-231) | GI50 (MOLT-4) | GI50 (NCI-H460) | GI50 (OVCAR-8) | GI50 (PC-3) | GI50 (RXF 393) | GI50 (SF-268) | GI50 (SF-295) | GI50 (SF-539) | GI50 (SK-MEL-28) | GI50 (SK-MEL-5) | GI50 (SNB-19) | GI50 (SNB-75) | GI50 (TK-10) | GI50 (BT-549)
c1ccc2c3c([nH]c2c1)C1CCCN1CC3 (stereo not given) | > 10 µM (inactive) | > 10 | > 10 µM (inactive) | > 10 µM (inactive) | > 10 µM (inactive) | > 10 µM (inactive) | > 10 µM (inactive) | > 10 µM (inactive) | > 10 µM (inactive) | > 10 µM (inactive) | > 10 µM (inactive) | > 10 µM (inactive) | > 10 µM (inactive) | > 10 µM (inactive) | > 10 µM (inactive) | > 10 µM (inactive) | > 10 µM (inactive) | > 10 µM (inactive) | > 10 µM (inactive) | –
COC(C(=O)NN)c1ccccc1 (stereo not given) | > 100 µM (inactive) | > 100 | – | > 100 µM (inactive) | > 100 µM (inactive) | – | > 100 µM (inactive) | > 100 µM (inactive) | > 100 µM (inactive) | > 100 µM (inactive) | > 100 µM (inactive) | > 100 µM (inactive) | > 100 µM (inactive) | > 100 µM (inactive) | > 100 µM (inactive) | > 100 µM (inactive) | > 100 µM (inactive) | 27.8 µM (inactive) | > 100 µM (inactive) | > 100 µM (inactive)
[O-][S+]1[C@H](c2ccccc2)c2c(-c3ccccc3)sc(-c3ccccc3)c2[C@@H]1c1ccccc1 (stereo not given in full) | 0.286 µM (active) | 7.1 | 4.31 µM (inactive) | > 100 µM (inactive) | – | – | 4.75 µM (inactive) | 17.1 µM (inactive) | 8.75 µM (inactive) | – | 23.1 µM (inactive) | > 100 µM (inactive) | > 100 µM (inactive) | > 100 µM (inactive) | 96.6 µM (inactive) | 6.15 µM (inactive) | 77.1 µM (inactive) | 12.4 µM (inactive) | 9.1 µM (inactive) | –
CC(C)CCc1n[nH]c(=O)n1/N=C\c1ccccc1 | > 100 µM (inactive) | > 100 | – | > 100 µM (inactive) | – | > 100 µM (inactive) | 67.8 µM (inactive) | > 100 µM (inactive) | > 100 µM (inactive) | – | > 100 µM (inactive) | > 100 µM (inactive) | > 100 µM (inactive) | > 100 µM (inactive) | > 100 µM (inactive) | > 100 µM (inactive) | > 100 µM (inactive) | > 100 µM (inactive) | > 100 µM (inactive) | –
COc1ccccc1C1c2cc3c(cc2OC(N2CCCC2)C1C)OCO3 (stereo not given) | 18.3 µM (inactive) | 17.2 | 14.2 µM (inactive) | 15.1 µM (inactive) | 18.9 µM (inactive) | – | 3.16 µM (inactive) | 16.4 µM (inactive) | 21.2 µM (inactive) | 16 µM (inactive) | 3.76 µM (inactive) | 13.6 µM (inactive) | 16.7 µM (inactive) | 14.9 µM (inactive) | 20.4 µM (inactive) | 14.5 µM (inactive) | 17.9 µM (inactive) | 12.9 µM (inactive) | 18.5 µM (inactive) | 16.8 µM (inactive)
CC(=O)O[C@@H]1CN(S(=O)(=O)c2ccc(C)cc2)C[C@@H]1C1CCCCC1 | 19.9 µM (inactive) | 32.6 | – | 21.9 µM (inactive) | 19.4 µM (inactive) | – | 25.5 µM (inactive) | 34.5 µM (inactive) | 24.8 µM (inactive) | 18.3 µM (inactive) | – | 16.8 µM (inactive) | 37.9 µM (inactive) | < 0.01 µM (active) | 14.5 µM (inactive) | 19.2 µM (inactive) | 54.8 µM (inactive) | 19.8 µM (inactive) | 14.2 µM (inactive) | –
CC1(C)CC[C@]2(C(=O)O)CC[C@]3(C)C(=CC[C@@H]4[C@@]5(C)CC[C@@H]6OC(C)(C)OC[C@@]6(C)[C@@H]5CC[C@]43C)[C@H]2C1 | 5.08 µM (inactive) | 2.87 | 8.51 µM (inactive) | 10.1 µM (inactive) | > 10 µM (inactive) | 3.04 µM (inactive) | 11.5 µM (inactive) | 5.46 µM (inactive) | 7.64 µM (inactive) | 5.4 µM (inactive) | – | 8.04 µM (inactive) | 5.18 µM (inactive) | 15.1 µM (inactive) | 14.4 µM (inactive) | – | 17.6 µM (inactive) | 11 µM (inactive) | 11.6 µM (inactive) | –
O=C(Nc1cccc2ccccc12)Oc1ccccc1C1CCCCC1 | 22.6 µM (inactive) | 17.2 | 27.2 µM (inactive) | 19 µM (inactive) | – | – | 15.9 µM (inactive) | 18.5 µM (inactive) | 15.9 µM (inactive) | – | 15 µM (inactive) | 24.4 µM (inactive) | 16.3 µM (inactive) | 17.5 µM (inactive) | 22.6 µM (inactive) | 15.5 µM (inactive) | 53.6 µM (inactive) | 13.9 µM (inactive) | 23 µM (inactive) | –
CCOC(=O)C1=C(O)C(=O)c2ccoc2C1=O | > 100 µM (inactive) | > 100 | > 100 µM (inactive) | > 100 µM (inactive) | – | – | > 100 µM (inactive) | > 100 µM (inactive) | > 100 µM (inactive) | – | > 100 µM (inactive) | > 100 µM (inactive) | > 100 µM (inactive) | > 100 µM (inactive) | > 100 µM (inactive) | > 100 µM (inactive) | > 100 µM (inactive) | > 100 µM (inactive) | > 100 µM (inactive) | –
C#CC[N+](CCO)(CCO)CCCCCCCCCCCCCCCCCC | 21.7 µM (inactive) | 15.3 | 1.55 µM (inactive) | 11.4 µM (inactive) | 14.8 µM (inactive) | – | 2.91 µM (inactive) | 9.53 µM (inactive) | 16.1 µM (inactive) | – | 2.48 µM (inactive) | 8.69 µM (inactive) | 7.76 µM (inactive) | 11.4 µM (inactive) | 16.5 µM (inactive) | 15.7 µM (inactive) | 5.92 µM (inactive) | 4.16 µM (inactive) | – | –
CC1(C)OC(=O)N(c2ccccc2)C12C=Cc1cc([N+](=O)[O-])ccc1O2 (stereo not given) | 23.8 µM (inactive) | 48.8 | 20.1 µM (inactive) | 32.1 µM (inactive) | – | 19.4 µM (inactive) | 21.7 µM (inactive) | 49.9 µM (inactive) | 51.6 µM (inactive) | 22.7 µM (inactive) | 60.3 µM (inactive) | 51.1 µM (inactive) | 37.5 µM (inactive) | – | 83.8 µM (inactive) | 36.4 µM (inactive) | 35.5 µM (inactive) | 43.2 µM (inactive) | 39.4 µM (inactive) | 51.6 µM (inactive)
c1ccc(/N=C(/Nc2ccccc2)N2CCCC2)cc1 | > 100 µM (inactive) | > 100 | > 100 µM (inactive) | > 100 µM (inactive) | > 100 µM (inactive) | – | > 100 µM (inactive) | > 100 µM (inactive) | > 100 µM (inactive) | 79.1 µM (inactive) | – | > 100 µM (inactive) | > 100 µM (inactive) | – | > 100 µM (inactive) | > 100 µM (inactive) | > 100 µM (inactive) | > 100 µM (inactive) | > 100 µM (inactive) | > 100 µM (inactive)
N/C(=N\c1ccc(Cl)cc1)NS(=O)(=O)c1cc(Cl)c(Oc2ccc([N+](=O)[O-])cc2Cl)c(Cl)c1 | 16.9 µM (inactive) | 16.9 | 16.7 µM (inactive) | – | – | 16.6 µM (inactive) | 14.8 µM (inactive) | 18.4 µM (inactive) | 16.6 µM (inactive) | 16.2 µM (inactive) | 15.2 µM (inactive) | > 100 µM (inactive) | 17.4 µM (inactive) | 16.6 µM (inactive) | 16.9 µM (inactive) | 16.6 µM (inactive) | 17.6 µM (inactive) | 17.1 µM (inactive) | 18.2 µM (inactive) | 17.4 µM (inactive)
C[N+](C)(C)CC(=O)N/N=c1\cc(C(=O)Nc2ccc(N=O)cc2C#N)oc2cc(O)ccc12 | > 100 µM (inactive) | > 100 | > 100 µM (inactive) | > 100 µM (inactive) | – | – | > 100 µM (inactive) | > 100 µM (inactive) | > 100 µM (inactive) | – | > 100 µM (inactive) | > 100 µM (inactive) | > 100 µM (inactive) | > 100 µM (inactive) | > 100 µM (inactive) | > 100 µM (inactive) | > 100 µM (inactive) | > 100 µM (inactive) | > 100 µM (inactive) | –
Fc1ccc(/N=N/N2CCCC2)cc1 | > 100 µM (inactive) | 25.2 | 50.4 µM (inactive) | > 100 µM (inactive) | 77.8 µM (inactive) | > 100 µM (inactive) | 32.1 µM (inactive) | 15.7 µM (inactive) | – | – | > 100 µM (inactive) | > 100 µM (inactive) | 8.04 µM (inactive) | > 100 µM (inactive) | 94 µM (inactive) | 33.9 µM (inactive) | > 100 µM (inactive) | – | 62.4 µM (inactive) | 41.8 µM (inactive)
CCC(C)[C@@H](NCc1ccccc1)[C@H](OCc1ccccc1)[C@@H]1COC(C)(C)O1 (stereo not given in full) | 20.5 µM (inactive) | 15.7 | – | 32.2 µM (inactive) | 21.2 µM (inactive) | 17.1 µM (inactive) | 25.5 µM (inactive) | – | 20.5 µM (inactive) | 28.6 µM (inactive) | – | 22.8 µM (inactive) | 21 µM (inactive) | – | 24.8 µM (inactive) | 12.8 µM (inactive) | 17 µM (inactive) | 32.6 µM (inactive) | 15.6 µM (inactive) | –

Source: ChEMBL document CHEMBL1201862, “PubChem BioAssay data set” (2004)
